Calls of active or inactive are those of the source. The rule behind the calls is not given here.
Columns and labels:
[1] = target: T1, Vitamin D3 receptor (Homo sapiens) (UniProt P11473); experiment: Agonist activity at GAL4 DNA binding domain fused VDR ligand binding domain (unknown origin) at 0.25 to 25 uM by FRET-based assay
T1 sequence (whole entry): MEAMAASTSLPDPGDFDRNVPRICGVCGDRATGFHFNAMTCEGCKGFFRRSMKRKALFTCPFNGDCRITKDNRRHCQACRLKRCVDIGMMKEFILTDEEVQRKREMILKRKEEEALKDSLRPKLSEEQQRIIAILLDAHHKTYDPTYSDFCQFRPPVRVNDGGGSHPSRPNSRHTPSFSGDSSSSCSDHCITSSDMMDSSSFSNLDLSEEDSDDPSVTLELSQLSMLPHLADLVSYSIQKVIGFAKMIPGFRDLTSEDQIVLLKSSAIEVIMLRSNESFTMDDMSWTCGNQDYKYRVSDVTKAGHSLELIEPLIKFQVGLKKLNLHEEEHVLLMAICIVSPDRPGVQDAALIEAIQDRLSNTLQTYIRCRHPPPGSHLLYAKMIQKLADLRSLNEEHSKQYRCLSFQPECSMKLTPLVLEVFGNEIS

Mus musculus [2] = experiment: Memory enhancement effect in C57BL/6 mouse assessed as time spent with moved object at 0.5 mg/kg, po administered via gavage by object recognition test; format: functional
Mus musculus [3] = experiment: Memory enhancement effect in C57BL/6 mouse assessed as time spent with moved object at 100 pg administered as dorsal hippocampal infusion by novel object recognition test; format: functional
Estrogen receptor [4] = target: T2, Estrogen receptor (Homo sapiens, UniProt P03372)
T2 sequence (P03372 whole entry): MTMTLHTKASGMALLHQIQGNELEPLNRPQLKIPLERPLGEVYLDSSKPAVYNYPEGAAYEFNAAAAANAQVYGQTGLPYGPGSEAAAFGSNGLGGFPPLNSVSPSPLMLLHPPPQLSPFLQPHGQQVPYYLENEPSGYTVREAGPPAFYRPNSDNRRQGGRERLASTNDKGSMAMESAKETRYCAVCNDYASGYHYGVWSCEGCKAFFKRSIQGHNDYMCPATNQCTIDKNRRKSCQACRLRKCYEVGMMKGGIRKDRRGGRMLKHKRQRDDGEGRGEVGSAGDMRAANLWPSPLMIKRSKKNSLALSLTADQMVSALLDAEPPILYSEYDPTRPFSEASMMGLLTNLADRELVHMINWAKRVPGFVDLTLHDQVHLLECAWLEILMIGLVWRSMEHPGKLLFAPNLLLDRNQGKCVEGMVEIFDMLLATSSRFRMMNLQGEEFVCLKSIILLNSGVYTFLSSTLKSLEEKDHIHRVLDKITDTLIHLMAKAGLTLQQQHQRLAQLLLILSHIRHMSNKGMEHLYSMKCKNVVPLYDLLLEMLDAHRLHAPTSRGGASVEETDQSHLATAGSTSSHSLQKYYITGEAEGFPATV
Description: Agonist activity at estrogen receptor alpha (unknown origin) after 22 hrs by cell-based luciferase reporter gene assay

[5] = target: T3, Progesterone receptor (Homo sapiens) (UniProt P06401); experiment: Agonist activity at GAL4 DNA binding domain fused progesterone receptor ligand binding domain (unknown origin) at 0.25 to 25 uM by FRET-based assay
T3 sequence (whole entry): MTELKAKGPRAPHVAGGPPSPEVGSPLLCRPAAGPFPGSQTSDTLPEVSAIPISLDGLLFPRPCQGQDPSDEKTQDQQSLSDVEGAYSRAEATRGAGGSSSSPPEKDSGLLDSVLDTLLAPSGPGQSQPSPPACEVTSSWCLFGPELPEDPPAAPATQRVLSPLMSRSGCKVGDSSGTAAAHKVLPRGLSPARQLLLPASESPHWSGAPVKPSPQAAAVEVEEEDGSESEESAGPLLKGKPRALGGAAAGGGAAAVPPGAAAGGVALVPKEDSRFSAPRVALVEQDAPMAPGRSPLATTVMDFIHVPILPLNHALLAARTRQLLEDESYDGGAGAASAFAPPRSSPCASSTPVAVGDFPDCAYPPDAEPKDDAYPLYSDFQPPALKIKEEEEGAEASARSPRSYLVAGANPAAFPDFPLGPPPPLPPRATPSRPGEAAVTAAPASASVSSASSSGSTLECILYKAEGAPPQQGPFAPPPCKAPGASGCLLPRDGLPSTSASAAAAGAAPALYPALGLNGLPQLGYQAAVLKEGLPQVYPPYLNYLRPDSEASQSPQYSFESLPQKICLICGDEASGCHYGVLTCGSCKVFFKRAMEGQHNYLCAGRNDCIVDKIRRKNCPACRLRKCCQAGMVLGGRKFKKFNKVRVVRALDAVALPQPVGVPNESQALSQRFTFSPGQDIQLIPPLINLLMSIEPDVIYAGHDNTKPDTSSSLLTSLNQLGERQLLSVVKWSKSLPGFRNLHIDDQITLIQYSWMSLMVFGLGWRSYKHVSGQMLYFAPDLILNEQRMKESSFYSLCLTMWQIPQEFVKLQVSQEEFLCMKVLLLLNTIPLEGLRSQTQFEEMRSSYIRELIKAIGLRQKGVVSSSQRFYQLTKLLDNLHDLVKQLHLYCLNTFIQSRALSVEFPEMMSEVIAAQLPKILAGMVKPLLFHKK

Mus musculus [6] = experiment: Memory enhancement effect in C57BL/6 mouse assessed as time spent with novel object at 100 pg administered as dorsal hippocampal infusion by novel object recognition test; format: functional
Mus musculus [7] = experiment: Memory enhancement effect in C57BL/6 mouse assessed as time spent with novel object at 5 mg/kg, ip by novel object recognition test; format: functional
Mus musculus [8] = experiment: Memory enhancement effect in C57BL/6 mouse assessed as time spent with moved object at 1 ng administered as dorsal hippocampal infusion by novel object recognition test; format: functional
Cytochrome P450 2C9 = Cytochrome P450 2C9 (Homo sapiens, UniProt P11712)
Description: Inhibition of human recombinant CYP2C9 preincubated for 10 mins followed by NADPH addition and measured after 10 to 30 mins by P450-Glo luminescence assay

Mus musculus [9] = experiment: Memory enhancement effect in C57BL/6 mouse assessed as time spent with novel object at 10 pg administered as dorsal hippocampal infusion by novel object recognition test; format: functional
Estrogen receptor [10] = target: T2, Estrogen receptor; remark: listed apart in the source
Mus musculus [11] = experiment: Memory enhancement effect in C57BL/6 mouse assessed as time spent with moved object at 10 pg administered as dorsal hippocampal infusion by novel object recognition test; format: functional
Mus musculus [12] = experiment: Memory enhancement effect in C57BL/6 mouse assessed as time spent with novel object at 0.5 mg/kg, po administered via gavage by novel object recognition test; format: functional
Estrogen receptor [13] = target: T2, Estrogen receptor; remark: listed apart in the source
Mus musculus [14] = experiment: Memory enhancement effect in C57BL/6 mouse assessed as time spent with moved object at 5 mg/kg, ip by novel object recognition test; format: functional
Mus musculus [15] = experiment: Memory enhancement effect in C57BL/6 mouse assessed as time spent with moved object at 0.5 mg/kg, ip by novel object recognition test; format: functional
Cytochrome P450 3A4 = Cytochrome P450 3A4 (Homo sapiens, UniProt P08684)
Sequence of Cytochrome P450 3A4 (P08684 whole entry): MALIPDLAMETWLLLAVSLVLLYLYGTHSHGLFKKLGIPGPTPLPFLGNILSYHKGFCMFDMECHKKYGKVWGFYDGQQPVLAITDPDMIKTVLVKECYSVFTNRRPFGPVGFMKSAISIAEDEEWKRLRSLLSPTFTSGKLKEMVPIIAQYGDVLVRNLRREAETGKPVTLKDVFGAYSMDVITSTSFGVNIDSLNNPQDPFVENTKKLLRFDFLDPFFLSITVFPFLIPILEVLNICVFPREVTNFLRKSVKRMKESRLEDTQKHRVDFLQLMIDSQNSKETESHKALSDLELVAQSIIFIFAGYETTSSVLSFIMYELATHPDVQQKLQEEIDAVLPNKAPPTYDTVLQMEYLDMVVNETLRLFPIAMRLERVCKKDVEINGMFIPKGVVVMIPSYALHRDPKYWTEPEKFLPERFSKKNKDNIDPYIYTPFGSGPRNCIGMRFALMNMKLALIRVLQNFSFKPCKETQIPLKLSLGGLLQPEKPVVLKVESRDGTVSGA
Description: Inhibition of human recombinant CYP3A4 preincubated for 10 mins followed by NADPH addition and measured after 10 to 30 mins by P450-Glo luminescence assay

Sequence of Cytochrome P450 2C9 (P11712 whole entry, the tested form may be a part): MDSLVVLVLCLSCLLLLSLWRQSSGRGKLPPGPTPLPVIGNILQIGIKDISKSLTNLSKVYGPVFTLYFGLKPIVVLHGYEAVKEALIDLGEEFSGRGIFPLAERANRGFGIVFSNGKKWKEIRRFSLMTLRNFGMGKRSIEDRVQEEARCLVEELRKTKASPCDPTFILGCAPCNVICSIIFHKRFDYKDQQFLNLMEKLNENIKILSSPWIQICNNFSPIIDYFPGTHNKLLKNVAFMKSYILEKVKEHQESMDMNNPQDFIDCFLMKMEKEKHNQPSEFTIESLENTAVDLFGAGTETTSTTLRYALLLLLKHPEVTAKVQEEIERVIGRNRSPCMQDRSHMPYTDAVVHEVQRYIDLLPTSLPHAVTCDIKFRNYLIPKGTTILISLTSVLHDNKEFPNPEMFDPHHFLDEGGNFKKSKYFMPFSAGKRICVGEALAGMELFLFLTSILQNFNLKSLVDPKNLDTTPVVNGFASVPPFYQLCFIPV

## OC[C@H]1CC[C@H](c2ccc(O)cc2)CC1
[1]
  Activity: inactive
Mus musculus [2]
  Time: 3.65 s
Mus musculus [3]
  Time: 10.3 s
Estrogen receptor [4]
  EC50: 20.4 µM
[5]
  Activity: inactive
Mus musculus [6]
  Time: 3.16 s
Mus musculus [7]
  Time: 1.65 s
Mus musculus [8]
  Time: 3.4 s
Cytochrome P450 2C9
  EC50: 34 µM
Mus musculus [9]
  Time: 0.88 s
Estrogen receptor [10]
  EC50: 0.289 µM
Mus musculus [11]
  Time: 1.19 s
Mus musculus [12]
  Time: 5.3 s
Estrogen receptor [13]
  EC50: > 10 µM
Mus musculus [14]
  Time: 2.78 s
Mus musculus [15]
  Time: 3.93 s
Cytochrome P450 3A4
  EC50: 89 µM

Source: ChEMBL document CHEMBL4371004, “A-C Estrogens as Potent and Selective Estrogen Receptor-Beta Agonists (SERBAs) to Enhance Memory Consolidation under Low-Estrogen Conditions” (J Med Chem, 2018)
